In this test the test system is VJ-300 cells. Description: In vitro test of action suppressing proliferation of cancer cells, combined administration of doxorubicin (colony formation), resistant cells. The test is classed as cell-based, Human. To be noted: ADM alone or ADM + test compound 1 µg/ml, LD50 of ADM relative to ADM alone in KB cells = 1, 7 days incubation, colony count. On the procedure:
Human rhinopharynx cancer derived KB cells (i.e., sensitive cells) and their multi-drug resistant clone VJ-300 cells (i.e., resistant cells) were used as the test cells. As the incubation solutions, use was made of 10% fetal calf serum (Flow Laboratories) and Eagle MEM medium (Nissui Seiyaku) containing 0.292 mg/ml of L-glutamine (Flow Laboratories). The tests of the action for overcoming resistance to anti-cancer drugs or action for increasing the effect of the anti-cancer drug with the combined administration of the anti-cancer drug doxorubicin (i.e., adriamycin, ADM) and the test compound were performed as follows:
The test cells were suspended in incubation solutions and adjusted to a cell density of about 200 cells/ml. The cell suspensions were injected in 2 ml amounts into petri dishes and were incubated in a CO2 gas incubator (5% CO2, 95% air) at 37°C for 24 hours. Then, 5 µl of a predetermined concentration of the aqueous ADM solution and a predetermined concentration of a DMSO solution of the test compound were added, then the incubation was continued for a further 7 days. After the end of the incubation, the result was immobilized with methanol, Giemsa stained and measured for the number of colonies per dish. The results were used to prepare a volume-reaction curve. […] The results are shown in Table 8 to Table 10 using the concentration of LD50 of ADM in the ADM alone group by KB cells as the resistance degree 1 and calculating the resistances of the following LD50 concentrations as relative ratios. […]
On to `CCOC(=O)C1=C(c2ccc(-n3c(C)nc4cnccc43)cc2)NC(C)=C(C(=O)OCCCCCc2cccnc2)C1CCc1ccccc1` (stereo not shown) [Compound 18, 6-methyl-2-[4-(2-methylimidazo[4,5-c]pyridin-1-yl)phenyl]-4-(2-phenylethyl)-1,4-dihydropyridin-3,5-dicarboxylate 3-ethylester, 5-[5-(3-pyridyl)pentyl]ester], for which the “Degree of resistance for ADM VJ-300” value was determined as 1.4.

In the case of `CCOC(=O)C1=C(c2ccc(-n3c(C)nc4cnccc43)cc2)NC(C)=C(C(=O)OCCCC(=O)c2cccnc2)C1C=C1CCCCC1` (stereo not shown) [Compound 46, 4-cyclohexylidenemethyl-6-methyl-2-[4-(2-methylimidazo[4,5-c]pyridin-1-yl)phenyl]-1,4-dihydropyridin-3,5-dicarboxylate 3-ethylester 5-(3-nicotinoylpropyl)ester], the “Degree of resistance for ADM VJ-300” value came out at 2.5.

For the compound `CCOC(=O)C1=C(c2ccc(-n3c(C)nc4cnccc43)cc2)NC(C)=C(C(=O)OCCCc2cccnc2)C1/C=C/c1ccccc1` (stereo not shown) [Compound 14, 6-methyl-2-[4-(2-methylimidazo[4,5-c]pyridin-1-yl)phenyl]-4-[(E)-2-phenylethenyl]-1,4-dihydropyridin-3,5-dicarboxylate 3-ethylester, 5-[3-(3-pyridyl)propyl]ester], the “Degree of resistance for ADM VJ-300” value is 1.3.

As to `COC(=O)C1=C(c2ccc(-n3ccnc3)cc2)NC(C)=C(C(=O)OC/C=C/c2cccnc2)C1C#Cc1ccccc1` (stereo not shown) [Compound 40, 2-[4-(1-imidazolyl)phenyl]-6-methyl-4-phenylethynyl-1,4-dihydropyridin-3,5-dicarboxylate 3-methylester, 5-[(E)-3-(3-pyridyl)-2-propenyl]ester], the “Degree of resistance for ADM VJ-300” value stood at 2.5.

Regarding `CCCCCC1C(C(=O)OCCCCCc2cccnc2)=C(C)NC(c2ccc(-n3c(C)nc4cnccc43)cc2)=C1C(=O)OCC` (stereo not shown) [Compound 17, 6-methyl-2-[4-(2-methylimidazo[4,5-c]pyridin-1-yl)phenyl]-4-pentyl-1,4-dihydropyridin-3,5-dicarboxylate 3-ethylester, 5-[5-(3-pyridyl)pentyl]ester], the “Degree of resistance for ADM VJ-300” value is recorded as 1.6.

Turning to `COC(=O)C1=C(c2ccc(-n3c(C)nc4cnccc43)cc2)NC(C)=C(C(=O)OC/C=C/c2cccnc2)C1/C=C/c1ccsc1` (stereo not shown) [Compound 41], the “Degree of resistance for ADM VJ-300” value stood at 7.8.

As to `CCCCCC1C(C(=O)OCC=Cc2cccnc2)=C(C)NC(c2ccc(-n3c(C)nc4ncccc43)cc2)=C1C(=O)OCC` (stereo not shown) [Compound 4, 6-methyl-2-[4-(2-methylimidazo[4,5-b]pyridin-1-yl)phenyl]-4-pentyl-1,4-dihydropyridin-3,5-dicarboxylate 3-ethylester, 5-[3-(3-pyridyl)-2-propenyl]ester], the “Degree of resistance for ADM VJ-300” value turned out to be 1.2.

For `CCOC(=O)C1=C(c2ccc(-n3c(C)nc4cnccc43)cc2)NC(C)=C(C(=O)OCCCC(=O)c2cccnc2)C1CCCC1CCCCC1` (stereo not shown) [Compound 45, 4-(3-cyclohexylpropyl)-6-methyl-2-[4-(2-methylimidazo[4,5-c]pyridin-1-yl)phenyl]-1,4-dihydropyridin-3,5-dicarboxylate 3-ethylester, 5-(3-nicotinoylpropyl)ester], the “Degree of resistance for ADM VJ-300” value was 2.6.

For the compound `CCOC(=O)C1=C(c2cccc(-n3ccnc3)c2)NC(C)=C(C(=O)OC/C=C/c2cccnc2)C1/C=C/c1ccccc1` (stereo not shown) [Compound 36, 2-[3-(1-imidazolyl)phenyl]-6-methyl-4-[(E)-2-phenylethenyl]-1,4-dihydropyridin-3,5-dicarboxylate 3-ethylester, 5-[(E)-3-(3-pyridyl)-2-propenyl]ester], the “Degree of resistance for ADM VJ-300” value is reported as 1.0.

Take `CCOC(=O)C1=C(c2ccc(-n3c(C)nc4cnccc43)cc2)NC(C)=C(C(=O)OC/C=C/c2cccnc2)C1C=C1CCCCC1` (stereo not shown) [Compound 29, 4-cyclohexylidenemethyl-6-methyl-2-[4-(2-methylimidazo[4,5-c]pyridin-1-yl)phenyl]-1,4-dihydropyridin-3,5-dicarboxylate 3-ethylester, 5-[(E)-3-(3-pyridyl)-2-propenyl]ester]: the “Degree of resistance for ADM VJ-300” value is recorded as 1.2.

As to `CCCCC1C(C(=O)OCCCc2cccnc2)=C(C)NC(c2ccc(-n3c(C)nc4cnccc43)cc2)=C1C(=O)OCC` (stereo not shown) [Compound 6, 4-butyl-6-methyl-2-[4-(2-methylimidazo[4,5-c]pyridin-1-yl)phenyl]-1,4-dihydropyridin-3,5-dicarboxylate 3-ethylester, 5-[3-(3-pyridyl)propyl]ester], the “Degree of resistance for ADM VJ-300” value was 2.8.

In the case of `CCCCCC1C(C(=O)OCCCc2cccnc2)=C(C)NC(c2ccc(-n3ccnc3)cc2)=C1C(=O)OCC` (stereo not shown) [Compound 44, 2-[4-(1-imidazolyl)phenyl]-6-methyl-4-pentyl-1,4-dihydropyridin-3,5-dicarboxylate 3-ethylester, 5-[3-(3-pyridyl)propyl]-ester], the “Degree of resistance for ADM VJ-300” value was 1.4.

As for `CCOC(=O)C1=C(c2ccc(-n3c(C)nc4cnccc43)cc2)NC(C)=C(C(=O)OCCCC(=O)c2cccnc2)C1/C=C/c1ccccc1` (stereo not shown) [Compound 47, 6-methyl-2-[4-(2-methylimidazo[4,5-c]pyridin-1-yl)phenyl]-4-[(E)-2-phenylethenyl]-1,4-dihydropyridin-3,5-dicarboxylate 3-ethylester, 5-(3-nicotinoylpropyl)ester], the “Degree of resistance for ADM VJ-300” value amounted to 1.2.

Regarding `CCCCCC1C(C(=O)OCCCN2CCN(C(c3ccccc3)c3ccccc3)CC2)=C(C)NC(c2ccc(-n3c(C)nc4ncccc43)cc2)=C1C(=O)OCC` (stereo not shown) [Compound 5, 6-methyl-2-[4-(2-methylimidazo[4,5-b]pyridin-1-yl)phenyl]-4-pentyl-1,4-dihydropyridin-3,5-dicarboxylate 3-ethylester, 5-[3-(4-benzhydrylpiperadin-1-yl)propyl]ester], the “Degree of resistance for ADM VJ-300” value is listed as 4.6.

In the case of `CCOC(=O)C1=C(c2ccc(-n3c(C)nc4cnccc43)cc2)NC(C)=C(C(=O)OCCCc2cccnc2)C1C=C(C)C` (stereo not shown) [Compound 11, 6-methyl-2-[4-(2-methylimidazo[4,5-c]pyridin-1-yl)phenyl]-4-(2-methyl-1-propenyl)-1,4-dihydropyridin-3,5-dicarboxylate 3-ethylester, 5-[3-(3-pyridyl)propyl]ester], the “Degree of resistance for ADM VJ-300” value is recorded as 3.2.

As to `COC(=O)C1=C(c2ccc(-n3c(C)nc4cnccc43)cc2)NC(C)=C(C(=O)OC/C=C/c2cccnc2)C1/C=C/c1ccccc1` (stereo not shown) [Compound 42, 6-methyl-2-[4-(2-methylimidazo[4,5-c]pyridin-1-yl)phenyl]-4-[(E)-2-phenylethenyl]-1,4-dihydropyridin-3,5-dicarboxylate 3-methylester, 5-[(E)-3-(3-pyridyl)-2-propenyl]ester], the “Degree of resistance for ADM VJ-300” value was found to be 2.1.

`CCOC(=O)C1=C(c2ccc(-n3c(C)nc4cnccc43)cc2)NC(C)=C(C(=O)OCCCc2cccnc2)C1CC(C)C` (stereo not shown) [Compound 10, 6-methyl-2-[4-(2-methylimidazo[4,5-c]pyridin-1-yl)phenyl]-4-(2-methylpropyl)-1,4-dihdropyridin-3,5-dicarboxylate 3-ethylester, 5-[3-(3-pyridyl)propyl]ester]: the “Degree of resistance for ADM VJ-300” value came to 1.4.

Take `CCOC(=O)C1=C(c2ccc(-n3c(C)nc4cnccc43)cc2)NC(C)=C(C(=O)OCCCCCc2cccnc2)C1/C=C/c1ccccc1` (stereo not shown) [Compound 21, 6-methyl-2-[4-(2-methylimidazo[4,5-c]pyridin-1-yl)phenyl]-4-[(E)-2-phenylethenyl]-1,4-dihydropyridin-3,5-dicarboxylate 3-ethylester, 5-[5-(3-pyridyl)pentyl]ester]: the “Degree of resistance for ADM VJ-300” value was 1.1.

In the case of `CCOC(=O)C1=C(c2ccc(-n3c(C)nc4cnccc43)cc2)NC(C)=C(C(=O)OCCCc2cccnc2)C1Cc1ccccc1` (stereo not shown) [Compound 12, 4-benzyl-6-methyl-2-[4-(2-methylimidazo[4,5-c]pyridin-1-yl)phenyl]-1,4-dihydropyridin-3,5-dicarboxylate 3-ethylester, 5-[3-(3-pyridyl)propyl]ester], the “Degree of resistance for ADM VJ-300” value is 6.5.

As to `COC(=O)C1=C(c2ccc(-n3ccnc3)cc2)NC(C)=C(C(=O)OC/C=C/c2cccnc2)C1C1CCCCC1` (stereo not shown) [Compound 38, 4-cyclohexyl-2-[4-(1-imidazolyl)phenyl]-6-methyl-1,4-dihydropyridin-3,5-dicarboxylate 3-methylester, 5-[(E)-3-(3-pyridyl)-2-propenyl]ester], the “Degree of resistance for ADM VJ-300” value stood at 2.4.

As for `CCOC(=O)C1=C(c2ccc(-n3c(C)nc4cnccc43)cc2)NC(C)=C(C(=O)OCCCc2cccnc2)C1CC(C)(C)C` (stereo not shown) [Compound 8, 4-(2,2-dimethylpropyl)-6-methyl-2-[4-(2-methylimidazo[4,5-c]pyridin-1-yl)phenyl]-1,4-dihydropyridin-3,5-dicarboxylate 3-ethylester, 5-[3-(3-pyridyl)propyl]ester], the “Degree of resistance for ADM VJ-300” value is given as 1.3.

In the case of `CCCCCC1C(C(=O)OCCCc2cccnc2)=C(C)NC(c2ccc(-n3c(C)nc4cnccc43)cc2)=C1C(=O)OCC` (stereo not shown) [Compound 7, 6-methyl-2-[4-(2-methylimidazo[4,5-c]pyridin-1-yl)phenyl]-4-pentyl-1,4-dihydropyridin-3,5-dicarboxylate 3-ethylester, -5-[3-(3-pyridyl)propyl]ester], the “Degree of resistance for ADM VJ-300” value was found to be 2.8.

These data come from patent EP0943615A1, “1,4-DIHYDROPYRIDINE DERIVATIVES” (Nikken Chemicals Company, Limited, priority 1996, dated 1998).
